Columns and labels:
[1] = test system: Tyrosine-protein kinase ABL1 (Homo sapiens), P00519 [E255K]; conditions: Compound concentration 1000.0 nM
[2] = test system: Tyrosine-protein kinase ABL1 (Homo sapiens), P00519 [H396P]; conditions: Compound concentration 1000.0 nM
[3] = target: Activin receptor type-2A (Homo sapiens) (UniProt P27037); conditions: Compound concentration 1000.0 nM
[4] = test system: ALK tyrosine kinase receptor (Homo sapiens), Q9UM73 [C1156Y]; conditions: Compound concentration 1000.0 nM
[5] = target: 5'-AMP-activated protein kinase catalytic subunit alpha-2 (Homo sapiens) (UniProt P54646); conditions: Compound concentration 1000.0 nM
[6] = target: Calcium/calmodulin-dependent protein kinase type 1B (Homo sapiens) (UniProt Q6P2M8); conditions: Compound concentration 1000.0 nM
[7] = target: Serine/threonine-protein kinase Chk2 (Homo sapiens) (UniProt O96017); conditions: Compound concentration 1000.0 nM
[8] = target: Casein kinase I isoform epsilon (Homo sapiens) (UniProt P49674); conditions: Compound concentration 1000.0 nM
[9] = test system: Epidermal growth factor receptor (Homo sapiens), P00533 [G719C]; conditions: Compound concentration 1000.0 nM
[10] = target: Ephrin type-A receptor 4 (Homo sapiens) (UniProt P54764); conditions: Compound concentration 1000.0 nM
[11] = target: Ephrin type-A receptor 7 (Homo sapiens) (UniProt Q15375); conditions: Compound concentration 1000.0 nM
[12] = target: Mitogen-activated protein kinase 7 (Homo sapiens) (UniProt Q13164); conditions: Compound concentration 1000.0 nM
[13] = test system: Receptor-type tyrosine-protein kinase FLT3 (Homo sapiens), P36888 [D835H]; conditions: Compound concentration 1000.0 nM
[14] = target: Tyrosine-protein kinase HCK (Homo sapiens) (UniProt P08631); conditions: Compound concentration 1000.0 nM
[15] = target: Insulin-like growth factor 1 receptor (Homo sapiens) (UniProt P08069); conditions: Compound concentration 1000.0 nM
[16] = target: Insulin receptor (Homo sapiens) (UniProt P06213); conditions: Compound concentration 1000.0 nM
[17] = target: Tyrosine-protein kinase Lyn (Homo sapiens) (UniProt P07948); conditions: Compound concentration 1000.0 nM
[18] = target: Mitogen-activated protein kinase kinase kinase 4 (Homo sapiens) (UniProt Q9Y6R4); conditions: Compound concentration 1000.0 nM
[19] = target: MAP kinase-activated protein kinase 2 (Homo sapiens) (UniProt P49137); conditions: Compound concentration 1000.0 nM
[20] = target: MAP/microtubule affinity-regulating kinase 4 (Homo sapiens) (UniProt Q96L34); conditions: Compound concentration 1000.0 nM
[21] = target: Hepatocyte growth factor receptor (Homo sapiens) (UniProt P08581); conditions: Compound concentration 1000.0 nM
[22] = target: MAP kinase-interacting serine/threonine-protein kinase 1 (Homo sapiens) (UniProt Q9BUB5); conditions: Compound concentration 1000.0 nM
[23] = target: Myosin light chain kinase 2, skeletal/cardiac muscle (Homo sapiens) (UniProt Q9H1R3); conditions: Compound concentration 1000.0 nM
[24] = target: Serine/threonine-protein kinase Nek10 (Homo sapiens) (UniProt Q6ZWH5); conditions: Compound concentration 1000.0 nM
[25] = target: Mitogen-activated protein kinase kinase kinase 14 (Homo sapiens) (UniProt Q99558); conditions: Compound concentration 1000.0 nM
[26] = target: Serine/threonine-protein kinase OSR1 (Homo sapiens) (UniProt O95747); conditions: Compound concentration 1000.0 nM
[27] = test system: Phosphatidylinositol 4,5-bisphosphate 3-kinase catalytic subunit alpha isoform (Homo sapiens), P42336 [C420R]; conditions: Compound concentration 1000.0 nM
[28] = test system: Phosphatidylinositol 4,5-bisphosphate 3-kinase catalytic subunit alpha isoform (Homo sapiens), P42336 [E545K]; conditions: Compound concentration 1000.0 nM
[29] = target: Phosphatidylinositol 4,5-bisphosphate 3-kinase catalytic subunit beta isoform (Homo sapiens) (UniProt P42338); conditions: Compound concentration 1000.0 nM
[30] = target: Protein kinase C eta type (Homo sapiens) (UniProt P24723); conditions: Compound concentration 1000.0 nM
[31] = target: Serine/threonine-protein kinase D1 (Homo sapiens) (UniProt Q15139); conditions: Compound concentration 1000.0 nM
[32] = target: cGMP-dependent protein kinase 2 (Homo sapiens) (UniProt Q13237); conditions: Compound concentration 1000.0 nM
[33] = target: Serine/threonine-protein kinase RIO2 (Homo sapiens) (UniProt Q9BVS4); conditions: Compound concentration 1000.0 nM
[34] = target: NUAK family SNF1-like kinase 2 (Homo sapiens) (UniProt Q9H093); conditions: Compound concentration 1000.0 nM
[35] = target: SNF-related serine/threonine-protein kinase (Homo sapiens) (UniProt Q9NRH2); conditions: Compound concentration 1000.0 nM
[36] = target: Serine/threonine-protein kinase 36 (Homo sapiens) (UniProt Q9NRP7); conditions: Compound concentration 1000.0 nM
[37] = target: Serine/threonine-protein kinase TBK1 (Homo sapiens) (UniProt Q9UHD2); conditions: Compound concentration 1000.0 nM
[38] = target: Angiopoietin-1 receptor (Homo sapiens) (UniProt Q02763); conditions: Compound concentration 1000.0 nM
[39] = target: Serine/threonine-protein kinase tousled-like 1 (Homo sapiens) (UniProt Q9UKI8); conditions: Compound concentration 1000.0 nM
[40] = target: Serine/threonine-protein kinase tousled-like 2 (Homo sapiens) (UniProt Q86UE8); conditions: Compound concentration 1000.0 nM
[41] = target: Non-receptor tyrosine-protein kinase TYK2 (Homo sapiens) (UniProt P29597); conditions: Compound concentration 1000.0 nM
[42] = target: Tyrosine-protein kinase receptor TYRO3 (Homo sapiens) (UniProt Q06418); conditions: Compound concentration 1000.0 nM
[43] = target: Serine/threonine-protein kinase ULK1 (Homo sapiens) (UniProt O75385); conditions: Compound concentration 1000.0 nM
[44] = target: D(1A) dopamine receptor (Homo sapiens) (UniProt P21728); conditions: Compound concentration 10.0 uM
[45] = target: Muscarinic acetylcholine receptor M5 (Homo sapiens) (UniProt P08912); conditions: Compound concentration 10.0 uM

Calcium/calmodulin-dependent protein kinase type 1B (Homo sapiens), sequence (Q6P2M8 whole entry): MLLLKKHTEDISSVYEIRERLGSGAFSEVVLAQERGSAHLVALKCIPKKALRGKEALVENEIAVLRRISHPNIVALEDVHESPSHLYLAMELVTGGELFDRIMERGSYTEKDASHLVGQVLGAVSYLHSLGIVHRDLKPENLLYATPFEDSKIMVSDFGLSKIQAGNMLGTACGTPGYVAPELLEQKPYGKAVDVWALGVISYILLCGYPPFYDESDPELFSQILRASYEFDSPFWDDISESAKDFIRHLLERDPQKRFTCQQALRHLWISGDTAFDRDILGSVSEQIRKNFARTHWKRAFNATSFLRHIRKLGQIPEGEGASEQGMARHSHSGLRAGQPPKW
SNF-related serine/threonine-protein kinase (Homo sapiens), sequence (Q9NRH2 whole entry): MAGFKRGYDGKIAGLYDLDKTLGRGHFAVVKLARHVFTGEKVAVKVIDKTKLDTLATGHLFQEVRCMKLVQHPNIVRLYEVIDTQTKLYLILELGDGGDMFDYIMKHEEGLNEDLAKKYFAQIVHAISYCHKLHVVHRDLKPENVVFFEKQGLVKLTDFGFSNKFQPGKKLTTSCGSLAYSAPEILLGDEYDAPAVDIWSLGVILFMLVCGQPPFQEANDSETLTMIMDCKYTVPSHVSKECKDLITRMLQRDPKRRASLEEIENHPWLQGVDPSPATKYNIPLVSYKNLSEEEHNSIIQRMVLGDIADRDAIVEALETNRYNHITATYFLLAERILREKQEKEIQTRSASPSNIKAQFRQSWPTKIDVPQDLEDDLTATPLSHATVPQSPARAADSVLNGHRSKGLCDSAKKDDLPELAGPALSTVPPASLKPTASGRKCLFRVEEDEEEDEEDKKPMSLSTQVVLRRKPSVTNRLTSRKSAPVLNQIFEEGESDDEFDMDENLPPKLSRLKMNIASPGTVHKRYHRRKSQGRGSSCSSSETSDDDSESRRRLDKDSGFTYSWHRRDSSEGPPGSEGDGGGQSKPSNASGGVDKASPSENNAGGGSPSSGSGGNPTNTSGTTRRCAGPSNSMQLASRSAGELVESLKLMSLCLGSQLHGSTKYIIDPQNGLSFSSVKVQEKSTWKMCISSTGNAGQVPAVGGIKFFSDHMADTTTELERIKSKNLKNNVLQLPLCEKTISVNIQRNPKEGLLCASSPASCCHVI
NUAK family SNF1-like kinase 2 (Homo sapiens), sequence (Q9H093 whole entry): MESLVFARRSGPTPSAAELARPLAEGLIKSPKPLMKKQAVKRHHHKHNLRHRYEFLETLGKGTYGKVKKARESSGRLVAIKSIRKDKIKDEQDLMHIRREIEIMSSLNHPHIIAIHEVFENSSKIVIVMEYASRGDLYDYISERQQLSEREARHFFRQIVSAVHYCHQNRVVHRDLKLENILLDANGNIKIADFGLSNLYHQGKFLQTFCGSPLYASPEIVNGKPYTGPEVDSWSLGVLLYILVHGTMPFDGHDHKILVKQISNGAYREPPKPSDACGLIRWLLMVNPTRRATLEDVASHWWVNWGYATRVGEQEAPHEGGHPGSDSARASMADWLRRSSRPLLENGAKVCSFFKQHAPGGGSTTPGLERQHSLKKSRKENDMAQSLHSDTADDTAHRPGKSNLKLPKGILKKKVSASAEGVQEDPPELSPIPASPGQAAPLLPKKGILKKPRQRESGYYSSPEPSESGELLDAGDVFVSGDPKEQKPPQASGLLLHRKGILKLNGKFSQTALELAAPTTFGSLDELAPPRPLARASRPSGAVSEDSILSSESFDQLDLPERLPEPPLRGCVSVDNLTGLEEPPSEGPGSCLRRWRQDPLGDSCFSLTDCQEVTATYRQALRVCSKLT
Mitogen-activated protein kinase kinase kinase 14 (Homo sapiens), sequence (Q99558 whole entry, looked up): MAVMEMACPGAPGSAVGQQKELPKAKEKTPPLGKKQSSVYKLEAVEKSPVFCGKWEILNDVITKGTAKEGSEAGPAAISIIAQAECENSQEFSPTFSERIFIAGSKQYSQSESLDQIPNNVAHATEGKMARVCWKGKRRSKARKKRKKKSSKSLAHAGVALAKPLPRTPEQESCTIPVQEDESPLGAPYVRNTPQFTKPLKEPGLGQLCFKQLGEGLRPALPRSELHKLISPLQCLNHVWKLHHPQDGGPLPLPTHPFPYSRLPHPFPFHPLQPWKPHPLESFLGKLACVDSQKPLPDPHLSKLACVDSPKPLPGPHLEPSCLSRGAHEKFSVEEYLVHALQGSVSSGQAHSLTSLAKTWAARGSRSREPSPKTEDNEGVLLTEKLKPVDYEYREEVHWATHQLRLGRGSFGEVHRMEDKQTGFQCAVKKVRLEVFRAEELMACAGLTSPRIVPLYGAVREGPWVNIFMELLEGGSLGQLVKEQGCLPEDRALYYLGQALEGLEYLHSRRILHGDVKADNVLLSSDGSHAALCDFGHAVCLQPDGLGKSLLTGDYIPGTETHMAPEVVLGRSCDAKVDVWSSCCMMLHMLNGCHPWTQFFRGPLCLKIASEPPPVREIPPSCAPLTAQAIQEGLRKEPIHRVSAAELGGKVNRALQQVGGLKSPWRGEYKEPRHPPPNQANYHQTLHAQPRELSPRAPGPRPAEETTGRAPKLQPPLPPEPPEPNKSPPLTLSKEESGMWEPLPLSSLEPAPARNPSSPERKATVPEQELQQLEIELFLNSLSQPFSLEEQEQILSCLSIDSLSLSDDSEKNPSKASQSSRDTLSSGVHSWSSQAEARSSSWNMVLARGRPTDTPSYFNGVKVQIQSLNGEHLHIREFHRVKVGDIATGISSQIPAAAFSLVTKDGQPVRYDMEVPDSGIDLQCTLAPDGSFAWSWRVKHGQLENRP
Serine/threonine-protein kinase D1 (Homo sapiens), sequence (Q15139 whole entry): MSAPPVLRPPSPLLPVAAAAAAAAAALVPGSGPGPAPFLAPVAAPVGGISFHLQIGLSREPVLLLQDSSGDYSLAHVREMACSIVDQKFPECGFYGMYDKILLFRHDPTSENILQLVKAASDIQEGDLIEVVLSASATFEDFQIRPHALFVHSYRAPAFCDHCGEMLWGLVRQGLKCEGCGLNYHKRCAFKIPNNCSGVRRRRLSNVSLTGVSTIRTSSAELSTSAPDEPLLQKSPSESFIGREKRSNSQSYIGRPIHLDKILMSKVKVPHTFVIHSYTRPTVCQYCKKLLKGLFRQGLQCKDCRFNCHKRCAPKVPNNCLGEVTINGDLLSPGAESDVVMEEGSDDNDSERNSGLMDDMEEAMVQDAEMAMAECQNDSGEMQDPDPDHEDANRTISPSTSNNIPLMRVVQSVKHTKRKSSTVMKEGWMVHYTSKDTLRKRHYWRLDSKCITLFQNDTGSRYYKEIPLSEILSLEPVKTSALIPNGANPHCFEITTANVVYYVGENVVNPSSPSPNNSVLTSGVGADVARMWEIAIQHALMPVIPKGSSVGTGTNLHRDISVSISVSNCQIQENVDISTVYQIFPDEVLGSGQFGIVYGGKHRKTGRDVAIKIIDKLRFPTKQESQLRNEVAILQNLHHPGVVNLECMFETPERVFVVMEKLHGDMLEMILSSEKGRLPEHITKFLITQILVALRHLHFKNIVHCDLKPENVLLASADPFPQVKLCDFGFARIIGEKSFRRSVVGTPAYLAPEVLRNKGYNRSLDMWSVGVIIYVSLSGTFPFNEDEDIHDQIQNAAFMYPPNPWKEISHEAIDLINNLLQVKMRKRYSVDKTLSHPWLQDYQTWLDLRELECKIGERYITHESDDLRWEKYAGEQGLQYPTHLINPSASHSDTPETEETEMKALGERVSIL
cGMP-dependent protein kinase 2 (Homo sapiens), sequence (Q13237 whole entry): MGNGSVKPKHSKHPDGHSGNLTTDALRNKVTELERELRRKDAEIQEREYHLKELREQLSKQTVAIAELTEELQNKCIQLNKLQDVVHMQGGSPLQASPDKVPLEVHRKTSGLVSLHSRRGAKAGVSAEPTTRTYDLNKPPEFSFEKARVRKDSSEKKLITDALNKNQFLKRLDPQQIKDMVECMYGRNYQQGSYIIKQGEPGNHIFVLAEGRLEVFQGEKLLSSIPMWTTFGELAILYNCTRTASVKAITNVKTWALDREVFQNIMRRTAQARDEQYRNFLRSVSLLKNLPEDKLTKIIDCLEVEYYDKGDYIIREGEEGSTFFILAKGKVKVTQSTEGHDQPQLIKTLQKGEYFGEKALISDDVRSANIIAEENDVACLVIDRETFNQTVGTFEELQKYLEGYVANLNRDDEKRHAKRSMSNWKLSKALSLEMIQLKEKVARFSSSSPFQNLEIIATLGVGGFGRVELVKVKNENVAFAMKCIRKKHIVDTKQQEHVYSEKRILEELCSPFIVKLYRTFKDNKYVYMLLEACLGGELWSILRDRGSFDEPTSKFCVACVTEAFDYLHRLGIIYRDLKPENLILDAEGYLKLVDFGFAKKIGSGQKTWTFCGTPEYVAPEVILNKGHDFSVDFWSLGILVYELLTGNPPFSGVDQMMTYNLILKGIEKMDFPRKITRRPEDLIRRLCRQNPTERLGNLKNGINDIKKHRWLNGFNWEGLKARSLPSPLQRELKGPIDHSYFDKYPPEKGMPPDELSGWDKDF
Myosin light chain kinase 2, skeletal/cardiac muscle (Homo sapiens), sequence (Q9H1R3 whole entry): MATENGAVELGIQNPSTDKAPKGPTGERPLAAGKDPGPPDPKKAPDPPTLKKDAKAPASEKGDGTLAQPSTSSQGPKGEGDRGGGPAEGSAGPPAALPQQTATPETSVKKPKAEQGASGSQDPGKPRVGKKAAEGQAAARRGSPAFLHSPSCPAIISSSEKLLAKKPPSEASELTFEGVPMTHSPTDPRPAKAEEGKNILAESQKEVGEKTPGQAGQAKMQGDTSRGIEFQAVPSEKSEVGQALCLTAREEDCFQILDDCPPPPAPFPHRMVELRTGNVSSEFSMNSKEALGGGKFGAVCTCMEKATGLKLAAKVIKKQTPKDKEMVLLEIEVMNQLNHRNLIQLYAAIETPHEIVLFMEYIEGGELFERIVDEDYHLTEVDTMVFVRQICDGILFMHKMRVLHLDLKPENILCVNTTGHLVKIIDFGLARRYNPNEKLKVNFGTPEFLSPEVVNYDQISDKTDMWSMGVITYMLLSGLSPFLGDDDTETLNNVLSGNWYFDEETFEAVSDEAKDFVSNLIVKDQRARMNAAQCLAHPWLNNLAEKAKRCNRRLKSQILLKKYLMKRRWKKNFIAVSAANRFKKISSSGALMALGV

O=c1nc(-c2ccccn2)sc2ccccc12 [BTZO-1]
inactive: residual activity [1] 100% | residual activity [2] 100% | residual activity [3] 91% | residual activity [4] 100% | residual activity [5] 100% | residual activity [6] 56% | residual activity [7] 100% | residual activity [8] 88% | residual activity [9] 77% | residual activity [10] 100% | residual activity [11] 80% | residual activity [12] 100% | residual activity [13] 74% | residual activity [14] 94% | residual activity [15] 80% | residual activity [16] 100% | residual activity [17] 100% | residual activity [18] 92% | residual activity [19] 100% | residual activity [20] 100% | residual activity [21] 74% | residual activity [22] 89% | residual activity [23] 100% | residual activity [24] 100% | residual activity [25] 100% | residual activity [26] 100% | residual activity [27] 94% | residual activity [28] 65% | residual activity [29] 100% | residual activity [30] 98% | residual activity [31] 100% | residual activity [32] 96% | residual activity [33] 94% | residual activity [34] 100% | residual activity [35] 100% | residual activity [36] 82% | residual activity [37] 91% | residual activity [38] 99% | residual activity [39] 93% | residual activity [40] 96% | residual activity [41] 98% | residual activity [42] 80% | residual activity [43] 100% | inhibition [44] 3.24% | inhibition [45] -7.5%

O=C1NC(c2ccccn2)Sc2ccccc21 (stereo not given) [BTZO-4]
inactive: residual activity [1] 77% | residual activity [2] 80% | residual activity [3] 100% | residual activity [4] 84% | residual activity [5] 100% | residual activity [6] 71% | residual activity [7] 100% | residual activity [8] 98% | residual activity [9] 87% | residual activity [10] 89% | residual activity [11] 72% | residual activity [12] 96% | residual activity [13] 65% | residual activity [14] 90% | residual activity [15] 80% | residual activity [16] 88% | residual activity [17] 80% | residual activity [18] 100% | residual activity [19] 100% | residual activity [20] 100% | residual activity [21] 68% | residual activity [22] 82% | residual activity [23] 100% | residual activity [24] 100% | residual activity [25] 92% | residual activity [26] 100% | residual activity [27] 100% | residual activity [28] 73% | residual activity [29] 100% | residual activity [30] 100% | residual activity [31] 100% | residual activity [32] 90% | residual activity [33] 83% | residual activity [34] 100% | residual activity [35] 94% | residual activity [36] 79% | residual activity [37] 87% | residual activity [38] 100% | residual activity [39] 94% | residual activity [40] 96% | residual activity [41] 86% | residual activity [42] 76% | residual activity [43] 100% | inhibition [44] 7.77% | inhibition [45] 0.557%
